≈ marks a conversion by molar mass, not a printed value.
How the values were obtained:
[1] = test system: P. aeruginosa; assay: microbe, parasite or virus in culture; assay type: cell-based, Pseudomonas aeruginosa
Procedure: (§1) The minimum inhibitory concentrations of (MIC) of CEME, CEMA and melittin were determined for a number of different bacteria (Table 2). Briefly, cells were grown overnight at 37° C. in LB-S (Luria broth without any salt supplement) and diluted one in 10,000 in the same medium to give concentrations of about 10^4 to 10^5 CFU/ml. The broth dilutions were set up in a 96 well microtiter plate by putting 200 μl of LB-S containing the initial concentration of antibiotic or compound in column 1 and 100 μl of the same medium in columns 2-12. The compounds were diluted by taking 100 μl of broth from column 1 and mixing it with column 2, resulting in a one in two dilution. This was continued to column 10. Finally, 10 μl of bacteria were pipetted into columns 1-11, and the plates incubated overnight at 37° C. The next day the plates were scored for growth in the wells, and the MIC determined.
Bacteria included the Bort strain of E. coli (Bortolussi, et al., Inf. Immun., 25:293, 1979) that was originally derived from a case of neonatal meningitis, and which is therefore considered a relevant pathogenic strain to study, and the 0111:B4 strain of E. coli (kindly provided by Dr. D. Morrison) which is a standard source of endotoxin. (Kelly, et al., Inf. Immun., 59:4491, 1991). In addition, P. aeruginosa PA01 strain H103, P. aeruginosa M2, P. aeruginosa K799, Eschericha coli UB 1005, Enterobacter cloacae 218S, Salmonella typhimurium MS7953s, Klebsiella pneumoniae ATCC 13883, Xanthomonas maltophilia ATCC 13637, and Acinetobacter calcoacetious 8193 were employed. LPS was obtained from E. coli Bort by the technique of Westphal and Jann, (Westphal, et al., Acad. Press, Inc. NY., 5:83) and from P. aeruginosa H103 by the method of Darveau and Hancock, (Darveau, et al., J. Bacteriol, 155:831, […]). E. coli 0111:B4 LPS was purchased from Sigma.

[2] = test system: P. aeruginosa H309 Whole Cells; assay: DPx binding inhibition using whole cells; set-up: species or system Pseudomonas aeruginosa; settings: DPx at 90-100% binding saturation, average of at least three trials
Procedure: For DPx binding inhibition assays using whole cells instead of purified LPS, H309 cells were prepared the same way as for the lysozyme lysis assay. The assay consisted of 10 μl of cells at an OD600 of 0.5, 990 μl of 5 mM HEPES pH 7.2 and 5 mM KCN, and the concentration of DPx that gave 90-100% binding saturation. […] Compounds were titrated in, and I50 values were determined as described above.

[3] = test system: S. aureus; assay: microbe, parasite or virus in culture; assay type: cell-based, Staphylococcus aureus
Procedure: as §1

[4] = molecular target: P. aeruginosa H103 LPS; assay: Dansyl polymyxin (DPx) displacement from purified LPS; assay type: binding, Pseudomonas aeruginosa; settings: 2.5 μM DPx, 3 μg/ml LPS, 5 mM HEPES pH 7.2, average of at least three trials; for IC50: read-out: I50, Value in μM
Procedure: In this assay, DPx was incubated with LPS to saturate the binding sites and then, while polycationic compounds are titrated into the reaction, displacement of the DPx was monitored by the decrease in fluorescence (FIG. 9). P. aeruginosa LPS was isolated as previously described (Darveau, et al., J of Bacteriology, 155:831, 1983) Dansyl polymyxin was synthesized as described by Schindler, et al., B. Antimicrobial Agents and Chemo, 8:95, 1975.
The method of Moore, et al., (Antimicrobial Agents and Chemo., 29:496, 1987), was used to test how much DPx was needed to saturate the binding sties on LPS. Briefly, 5 μl samples of 100 μM DPx were titrated sequentially into 1 ml of 3 μg/ml of LPS until a maximum fluorescence was reached. The fluorescence was measured in a Perkin-Elmer 650-10S fluorescence spectrophotometer with an excitation wavelength of 340 nm and an emission wavelength of 485 nm using slit widths of 5 nm. […] For the binding inhibition assays (Moore, et al., Antimicrobial Agents and Chemo., 29:496, 1987), 2.5 μM DPx was added to 3 μg/ml of H103 LPS in 5 mM HEPES pH 7.2. The test compounds were added 5 μl at a time and the decrease in fluorescence due to displacement of the DPx from the LPS was recorded.
When the data was plotted as a double reciprocal plot (FIG. 10), the X-intercept provided a value that is equal to -1/I50.

[5] = strain H188, Antibiotic sensitive
[6] = strain RN4220, Methicillin sensitive
[7] = strain SAP0017, Methicillin resistant

Molecule	MIC ([1]; Pseudomonas aeruginosa H103) [µg/mL]	MIC ([1]; Pseudomonas aeruginosa K799) [µg/mL]	MIC ([1]; strain H187, Parent of H188) [µg/mL]	MIC [1, 5] [µg/mL]	MIC ([1]; strain H309, Wildtype) [µg/mL]	I50, Value in μg/ml [2] [µg/mL]	IC50 ([2]; read-out: I50, Value in μM) [µM]	MIC [3, 6] [µg/mL]	MIC [3, 7] [µg/mL]	I50, Value in μg/ml [4] [µg/mL]	IC50 [4] [µM]
CC[C@H](C)[C@H](NC(=O)CNC(=O)[C@@H](NC(=O)[C@H](CCCCN)NC(=O)[C@H](CCCCN)NC(=O)[C@H](Cc1ccccc1)NC(=O)[C@H](CC(C)C)NC(=O)[C@H](CCCCN)NC(=O)[C@H](Cc1c[nH]c2ccccc12)NC(=O)[C@@H](N)CCCCN)[C@@H](C)CC)C(=O)NCC(=O)N[C@@H](C)C(=O)N[C@H](C(=O)N[C@@H](CC(C)C)C(=O)N[C@@H](CCCCN)C(=O)N[C@H](C(=O)N[C@@H](CC(C)C)C(=O)N[C@H](C(=O)N[C@H](C(=O)NCC(=O)N[C@@H](CC(C)C)C(=O)N1CCC[C@H]1C(=O)N[C@@H](C)C(=O)N[C@@H](CC(C)C)C(=O)N[C@@H](CCCCN)C(=O)N[C@@H](CC(C)C)C(=O)N[C@H](C(=O)N[C@@H](CCCCN)C(=O)O)[C@@H](C)O)[C@@H](C)O)[C@@H](C)O)C(C)C)C(C)C [CEMA]	8 (≈ 2.61 µM)	2.8 (≈ 0.913 µM)	2.8 (≈ 0.913 µM)	1.4 (≈ 0.457 µM)	2.8 (≈ 0.913 µM)	1.15 ± 0.09	0.37 ± 0.03	> 5.6	> 5.6	4.12 ± 0.36	1.32 ± 0.117
polymyxin B			0.5	0.06	0.5	3.7 ± 1.20		> 8	> 8	2.97 ± 0.07	1.51 ± 0.04

From patent US5688767A, “Treatment of endotoxin-associated disorders with cationic peptides” (priority 1996, dated 1997)
